ChEMBL document CHEMBL1201862, “PubChem BioAssay data set” (2004)
Calls of active or inactive are those of the source.

Assays:
[1] = target: T1, Sphingosine 1-phosphate receptor 2 (Homo sapiens, UniProt O95136); assay: Dose Response Cell Based Assay for Antagonists of the S1P2 Receptor. [Related pubchem assays: 856, 736 ]; format: functional
[2] = Shn3 3'UTR reporter inhibitors, dose response, cell-based, Clone20 osteoblasts, firefly luciferase, cherry-picked (AID 624132); format: functional;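 further: firefly luciferase luminescence from reporter carrying the Shn3 3'UTR in osteoblasts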
[3] = HepG2 cell cytotoxicity, dose response, cytotoxicity control for Shn3 inhibitor project, CellTiter-Glo, cherry-picked (AID 624134); format: functional, cell-based
[4] = cytotoxicity in HEK-293T cells, dose response, cytotoxicity control for TCR NF-kB inhibitor project, luminescence, T-cell screen hits (AID 489026); format: functional, cell-based;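 further: cells exposed to compound about 14 hours before the viability readout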
[5] = control 3'UTR Renilla luciferase suppression, dose response, counter-screen for Shn3 inhibitor project, cell-based, Clone20-Shn3RL, cherry-picked (AID 624133); format: functional
INS1 = assay: beta cell apoptosis inhibitors, cytokine rescue, dose response, luminescence, retest (AID 449756); format: functional, cell-based; settings: Rattus norvegicus;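 further: cell death triggered by IL-1 beta plus TNF-alpha plus IFN-gamma mixture; protective hits raise ATP signal compared with cytokine alone wells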
[6] = cytotoxicity toward NIH3T3 fibroblasts, dose response, counter-screen, cell-based, ATP luminescence, mouse fibroblasts (AID 2010); format: functional;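 further: cells exposed to compound for about 90 hours before reading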
[7] = inhibitors of intracellular T. cruzi replication, confirmation, NIH3T3 host cells, beta-gal luminescence (AID 2044); format: functional, cell-based;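 further: intracellular parasites grown in NIH/3T3 mouse fibroblasts as host cells; luminescent beta-galactosidase reporter signal from transgenic T. cruzi replicating inside host cells; inhibitors lower the luminescence signal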
[8] = target: T2, DNA repair and recombination protein RAD54-like (Homo sapiens, UniProt Q92698); assay: inhibitors of human RAD54 branch migration, confirmation, biochemical, fluorescence, cherry-picked samples, dose series (AID 651657); format: functional
T2 sequence (Q92698 whole entry): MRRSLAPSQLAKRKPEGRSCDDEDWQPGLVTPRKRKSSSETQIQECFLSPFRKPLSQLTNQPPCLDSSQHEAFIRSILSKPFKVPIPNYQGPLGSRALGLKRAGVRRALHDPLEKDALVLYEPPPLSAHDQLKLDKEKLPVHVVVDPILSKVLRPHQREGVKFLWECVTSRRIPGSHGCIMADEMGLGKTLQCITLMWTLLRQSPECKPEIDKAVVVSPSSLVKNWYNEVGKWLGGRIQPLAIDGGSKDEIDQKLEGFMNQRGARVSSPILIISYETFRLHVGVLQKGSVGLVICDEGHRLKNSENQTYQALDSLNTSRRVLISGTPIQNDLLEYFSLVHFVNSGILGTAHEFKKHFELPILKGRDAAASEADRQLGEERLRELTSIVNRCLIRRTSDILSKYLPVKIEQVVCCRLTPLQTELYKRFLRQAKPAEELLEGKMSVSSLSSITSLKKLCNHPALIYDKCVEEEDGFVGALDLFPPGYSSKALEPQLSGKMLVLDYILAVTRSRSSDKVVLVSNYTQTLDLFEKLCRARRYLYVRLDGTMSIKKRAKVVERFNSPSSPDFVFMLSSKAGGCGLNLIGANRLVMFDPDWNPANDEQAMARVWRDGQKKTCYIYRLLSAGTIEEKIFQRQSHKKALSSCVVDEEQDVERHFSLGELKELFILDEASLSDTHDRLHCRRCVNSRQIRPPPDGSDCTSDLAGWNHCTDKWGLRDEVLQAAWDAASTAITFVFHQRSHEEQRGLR

[9] = target: T3, DNA repair protein RAD52 homolog (Homo sapiens, UniProt P43351); format: functional, biochemical
T3 sequence (P43351 whole entry): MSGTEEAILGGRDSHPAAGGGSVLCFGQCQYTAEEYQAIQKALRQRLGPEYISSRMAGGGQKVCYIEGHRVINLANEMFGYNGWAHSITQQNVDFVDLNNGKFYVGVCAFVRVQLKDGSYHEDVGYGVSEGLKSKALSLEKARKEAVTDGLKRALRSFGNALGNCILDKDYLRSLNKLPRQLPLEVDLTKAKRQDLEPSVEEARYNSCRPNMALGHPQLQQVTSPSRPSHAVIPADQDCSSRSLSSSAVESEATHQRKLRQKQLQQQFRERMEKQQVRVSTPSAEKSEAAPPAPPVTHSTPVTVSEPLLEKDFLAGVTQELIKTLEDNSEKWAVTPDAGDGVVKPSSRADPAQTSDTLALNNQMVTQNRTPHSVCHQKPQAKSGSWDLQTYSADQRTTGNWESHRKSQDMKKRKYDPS

Vero [10] = assay: West Nile virus antiviral activity, cell-based, CPE readout (AID 1621); format: functional; settings: Chlorocebus sabaeus
[11] = target: T4, Tyrosine-protein phosphatase non-receptor type 7 (Homo sapiens, UniProt P35236); assay: inhibitors of human HePTP phosphatase, […], biochemical, absorbance, leukemia target (AID 521); format: functional
T4 sequence (P35236 whole entry): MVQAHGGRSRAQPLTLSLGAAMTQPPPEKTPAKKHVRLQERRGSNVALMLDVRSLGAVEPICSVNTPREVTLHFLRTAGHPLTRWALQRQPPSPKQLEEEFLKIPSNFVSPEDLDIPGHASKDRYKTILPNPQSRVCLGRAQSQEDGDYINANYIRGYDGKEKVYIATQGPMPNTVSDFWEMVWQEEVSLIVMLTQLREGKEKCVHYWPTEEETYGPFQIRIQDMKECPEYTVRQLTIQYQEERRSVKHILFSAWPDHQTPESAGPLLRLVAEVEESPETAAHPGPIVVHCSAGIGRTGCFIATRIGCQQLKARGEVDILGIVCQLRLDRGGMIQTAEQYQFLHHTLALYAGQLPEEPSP

Major prion protein = Major prion protein (Homo sapiens, UniProt P04156); format: functional, cell-based
[12] = target: T5, Dual specificity protein phosphatase 6 (Rattus norvegicus, UniProt Q64346); assay: MKP-3 phosphatase inhibitors, primary screen, biochemical, rat enzyme, in vitro (AID 425)
T5 sequence (Q64346 whole entry): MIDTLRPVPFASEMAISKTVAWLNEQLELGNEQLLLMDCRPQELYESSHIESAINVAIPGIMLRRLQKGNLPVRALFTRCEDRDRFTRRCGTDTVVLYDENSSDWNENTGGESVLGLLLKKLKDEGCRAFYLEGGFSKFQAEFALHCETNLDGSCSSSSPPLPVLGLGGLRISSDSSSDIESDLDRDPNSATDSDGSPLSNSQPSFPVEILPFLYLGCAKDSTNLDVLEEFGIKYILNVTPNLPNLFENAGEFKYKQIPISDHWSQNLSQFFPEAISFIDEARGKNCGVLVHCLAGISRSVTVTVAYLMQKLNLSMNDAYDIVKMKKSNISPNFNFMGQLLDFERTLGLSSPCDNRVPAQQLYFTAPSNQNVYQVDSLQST

Cytochrome P450 2C19 = Cytochrome P450 2C19 (Homo sapiens, UniProt P33261); assay: Cytochrome panel assay with activity outcomes. Panel member name: p450-cyp2c19 Compounds with AC50 equal or less than 10 uM are considered active; format: functional; settings: read-out: AC50
Cytochrome P450 2C19, sequence (P33261 whole entry): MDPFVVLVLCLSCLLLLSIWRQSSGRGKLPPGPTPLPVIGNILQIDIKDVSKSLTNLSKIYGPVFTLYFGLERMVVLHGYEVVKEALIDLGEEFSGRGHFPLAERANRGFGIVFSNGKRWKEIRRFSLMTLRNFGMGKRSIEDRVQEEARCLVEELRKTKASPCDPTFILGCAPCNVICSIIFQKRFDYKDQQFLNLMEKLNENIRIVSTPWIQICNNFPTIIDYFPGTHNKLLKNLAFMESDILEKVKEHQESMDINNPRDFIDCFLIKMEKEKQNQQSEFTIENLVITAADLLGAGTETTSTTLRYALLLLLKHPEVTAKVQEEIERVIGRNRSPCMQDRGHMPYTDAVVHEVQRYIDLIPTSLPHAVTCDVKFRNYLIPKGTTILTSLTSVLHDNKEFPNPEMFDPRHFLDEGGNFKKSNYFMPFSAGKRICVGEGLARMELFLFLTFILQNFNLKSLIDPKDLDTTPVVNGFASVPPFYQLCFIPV

[13] = target: T5, Dual specificity protein phosphatase 6; format: functional
[14] = target: T4, Tyrosine-protein phosphatase non-receptor type 7; format: functional
[15] = target: T5, Dual specificity protein phosphatase 6
Bcl-2-like protein 10 = target: T6, Bcl-2-like protein 10 (Homo sapiens, UniProt Q9HD36); assay: displacers of TR3 peptide from Bcl-B, primary screen, selectivity assay for Bfl-1 inhibitor project, biochemical, fluorescence polarization, FITC-TR3 peptide (AID 748);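 further: fluorescence polarization from a fluorescein-labelled TR3 peptide binding purified Bcl-B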
T6 sequence (Q9HD36 whole entry): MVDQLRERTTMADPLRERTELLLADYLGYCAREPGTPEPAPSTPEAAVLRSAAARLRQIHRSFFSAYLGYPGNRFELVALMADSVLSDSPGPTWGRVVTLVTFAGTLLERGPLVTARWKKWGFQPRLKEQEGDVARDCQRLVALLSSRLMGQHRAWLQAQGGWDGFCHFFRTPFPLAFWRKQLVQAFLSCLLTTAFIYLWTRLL

[16] = target: Glyceraldehyde-3-phosphate dehydrogenase (Homo sapiens, UniProt P04406)
Glyceraldehyde-3-phosphate dehydrogenase, sequence (P04406 whole entry): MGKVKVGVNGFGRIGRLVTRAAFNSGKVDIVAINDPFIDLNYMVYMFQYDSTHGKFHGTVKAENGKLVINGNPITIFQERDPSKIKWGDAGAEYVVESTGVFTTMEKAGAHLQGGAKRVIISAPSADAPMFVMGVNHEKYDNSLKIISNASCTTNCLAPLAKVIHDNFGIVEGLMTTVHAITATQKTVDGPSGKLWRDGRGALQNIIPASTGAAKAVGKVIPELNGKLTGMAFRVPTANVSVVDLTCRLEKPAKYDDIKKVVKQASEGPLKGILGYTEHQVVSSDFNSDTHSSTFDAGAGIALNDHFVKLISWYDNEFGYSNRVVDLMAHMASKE

Vero [17] = assay: cells; format: functional; settings: Chlorocebus sabaeus
[18] = target: T1, Sphingosine 1-phosphate receptor 2; assay: Dose Response Cell Based Assay for Agonists of the S1P2 Receptor. [Related pubchem assays: 729, 736, 843 ]; format: functional
Protein RecA = target: T7, Protein RecA (Mycobacterium tuberculosis, UniProt P9WHJ3); assay: Fluorescence Cell-Free Homogeneous Dose Retest to Identify Inhibitors of RecA-Intein Splicing Activity. [Related pubchem assays (depositor defined):AID2097, AID2223, AID489010, AID492950]; format: functional
T7 sequence (P9WHJ3 whole entry): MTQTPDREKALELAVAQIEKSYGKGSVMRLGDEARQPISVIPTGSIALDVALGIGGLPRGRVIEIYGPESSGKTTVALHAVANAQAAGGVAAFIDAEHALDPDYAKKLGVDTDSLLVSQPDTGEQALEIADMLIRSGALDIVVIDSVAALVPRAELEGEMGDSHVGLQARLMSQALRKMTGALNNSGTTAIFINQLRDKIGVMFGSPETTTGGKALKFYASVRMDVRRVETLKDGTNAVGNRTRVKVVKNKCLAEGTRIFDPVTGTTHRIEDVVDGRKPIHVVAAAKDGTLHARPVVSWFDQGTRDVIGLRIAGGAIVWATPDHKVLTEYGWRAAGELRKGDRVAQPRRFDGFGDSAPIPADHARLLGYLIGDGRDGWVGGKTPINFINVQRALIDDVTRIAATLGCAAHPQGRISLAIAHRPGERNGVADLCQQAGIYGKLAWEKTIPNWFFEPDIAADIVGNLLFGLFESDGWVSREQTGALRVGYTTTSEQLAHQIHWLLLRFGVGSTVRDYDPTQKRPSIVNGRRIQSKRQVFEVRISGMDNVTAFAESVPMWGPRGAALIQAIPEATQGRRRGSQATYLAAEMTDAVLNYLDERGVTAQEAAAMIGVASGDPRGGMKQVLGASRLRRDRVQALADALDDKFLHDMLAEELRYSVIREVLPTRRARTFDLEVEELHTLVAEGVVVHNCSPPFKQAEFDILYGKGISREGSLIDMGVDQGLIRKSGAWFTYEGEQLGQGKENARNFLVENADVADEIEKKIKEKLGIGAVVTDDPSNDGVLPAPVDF

[19] = target: T8, Replicative DNA helicase DnaB (Mycobacterium tuberculosis, UniProt P9WMR3); assay: DnaB intein splicing inhibitors, dose response, biochemical, cell-free fluorescence (AID 449749); format: functional
T8 sequence (P9WMR3 whole entry): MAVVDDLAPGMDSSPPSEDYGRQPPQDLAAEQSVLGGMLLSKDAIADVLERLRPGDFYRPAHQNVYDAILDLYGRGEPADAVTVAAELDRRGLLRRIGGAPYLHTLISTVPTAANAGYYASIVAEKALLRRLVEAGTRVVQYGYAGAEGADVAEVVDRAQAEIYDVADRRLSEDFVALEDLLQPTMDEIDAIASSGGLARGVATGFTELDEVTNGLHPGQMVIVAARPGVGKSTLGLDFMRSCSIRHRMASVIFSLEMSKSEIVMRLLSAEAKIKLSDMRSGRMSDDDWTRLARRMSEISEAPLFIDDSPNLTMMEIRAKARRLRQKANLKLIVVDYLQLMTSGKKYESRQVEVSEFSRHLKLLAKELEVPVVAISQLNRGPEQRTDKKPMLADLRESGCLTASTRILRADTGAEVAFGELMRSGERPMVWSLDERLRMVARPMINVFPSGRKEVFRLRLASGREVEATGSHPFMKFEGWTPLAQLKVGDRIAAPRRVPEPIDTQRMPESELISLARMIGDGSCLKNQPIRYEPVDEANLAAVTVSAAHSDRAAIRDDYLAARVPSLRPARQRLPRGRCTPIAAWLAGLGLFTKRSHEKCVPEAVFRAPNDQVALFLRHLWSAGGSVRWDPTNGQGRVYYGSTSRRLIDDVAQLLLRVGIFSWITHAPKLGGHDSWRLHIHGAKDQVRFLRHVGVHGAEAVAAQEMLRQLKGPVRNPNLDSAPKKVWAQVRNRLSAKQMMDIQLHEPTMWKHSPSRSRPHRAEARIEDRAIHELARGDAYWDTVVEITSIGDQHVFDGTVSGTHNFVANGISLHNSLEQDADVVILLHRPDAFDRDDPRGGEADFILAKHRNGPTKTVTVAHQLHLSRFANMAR

[20] = target: Voltage-gated inwardly rectifying potassium channel KCNH2 (Homo sapiens, UniProt Q12809); assay: hERG protection from proarrhythmic block, potency, dose response, cell-based, thallium flux (AID 2121); format: ADME
Voltage-gated inwardly rectifying potassium channel KCNH2, sequence (Q12809 whole entry): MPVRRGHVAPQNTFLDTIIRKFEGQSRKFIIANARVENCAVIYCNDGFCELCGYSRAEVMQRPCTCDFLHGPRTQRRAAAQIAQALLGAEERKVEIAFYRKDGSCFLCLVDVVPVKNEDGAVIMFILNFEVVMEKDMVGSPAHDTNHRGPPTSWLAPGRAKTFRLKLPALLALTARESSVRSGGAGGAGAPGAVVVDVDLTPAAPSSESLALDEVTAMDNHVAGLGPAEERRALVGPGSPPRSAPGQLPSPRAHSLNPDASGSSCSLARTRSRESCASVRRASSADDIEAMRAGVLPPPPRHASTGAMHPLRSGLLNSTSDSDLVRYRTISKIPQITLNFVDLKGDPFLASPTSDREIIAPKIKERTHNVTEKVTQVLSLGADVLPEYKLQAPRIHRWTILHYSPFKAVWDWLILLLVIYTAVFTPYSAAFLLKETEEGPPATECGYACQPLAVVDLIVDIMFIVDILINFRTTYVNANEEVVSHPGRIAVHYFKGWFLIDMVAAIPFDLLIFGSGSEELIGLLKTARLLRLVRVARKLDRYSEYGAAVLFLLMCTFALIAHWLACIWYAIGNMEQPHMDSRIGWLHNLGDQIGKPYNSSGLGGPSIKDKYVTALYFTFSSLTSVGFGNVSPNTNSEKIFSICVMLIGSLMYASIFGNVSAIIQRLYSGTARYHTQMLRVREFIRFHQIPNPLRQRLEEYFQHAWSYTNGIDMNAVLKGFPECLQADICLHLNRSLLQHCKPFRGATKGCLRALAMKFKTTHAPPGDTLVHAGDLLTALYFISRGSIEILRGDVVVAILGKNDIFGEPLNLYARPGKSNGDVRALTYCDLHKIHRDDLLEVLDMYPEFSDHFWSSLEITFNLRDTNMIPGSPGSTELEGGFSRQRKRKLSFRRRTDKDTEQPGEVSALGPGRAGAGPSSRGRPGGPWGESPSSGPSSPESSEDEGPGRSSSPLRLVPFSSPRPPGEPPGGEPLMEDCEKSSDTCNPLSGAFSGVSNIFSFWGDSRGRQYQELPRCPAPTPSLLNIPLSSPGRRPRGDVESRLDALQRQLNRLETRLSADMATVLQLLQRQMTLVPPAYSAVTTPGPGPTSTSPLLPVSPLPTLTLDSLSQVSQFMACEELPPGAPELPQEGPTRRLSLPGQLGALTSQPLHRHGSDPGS

T1 sequence (O95136 whole entry): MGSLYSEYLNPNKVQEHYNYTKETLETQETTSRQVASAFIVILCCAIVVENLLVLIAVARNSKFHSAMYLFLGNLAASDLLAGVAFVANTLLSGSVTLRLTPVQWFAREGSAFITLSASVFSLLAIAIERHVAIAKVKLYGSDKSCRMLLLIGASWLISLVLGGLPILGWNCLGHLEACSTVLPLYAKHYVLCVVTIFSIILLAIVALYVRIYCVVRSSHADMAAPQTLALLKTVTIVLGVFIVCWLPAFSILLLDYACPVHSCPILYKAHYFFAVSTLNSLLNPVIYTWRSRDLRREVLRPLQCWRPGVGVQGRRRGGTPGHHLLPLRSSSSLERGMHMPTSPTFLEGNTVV

COC(=O)c1sc2cc(C(F)(F)F)cnc2c1-c1ccccc1
IC50 [1]: > 30 µM (not active)

Nc1nc(Cl)cc(N2CCC(c3cc(-c4ccc(Cl)cc4)[nH]n3)CC2)n1
AC50 [2]: 2.43 µM (active)
AC50 [3]: 19.5 µM (active)
IC50 [4]: 64.3 µM (inactive)
AC50 [5]: 11.1 µM (active)
AC50 (INS1): 4.41 µM (active)
EC50 [6]: 7.5 µM (active)
EC50 [7]: 2.13 µM (active)
IC50 [1]: 7.01 µM (active)

CCCN(CCC)CCCN=C(S)Nc1ccc2nc(N3CCCC3)cc(C)c2c1
AC50 [8]: 19.4 µM (active)
AC50 [9]: 9.06 µM (active)
EC50 [6]: 10.1 µM (active)
EC50 [7]: 1.96 µM (active)
IC50 (Vero [10]): 25.4 µM (active)

NC(=O)CSc1nnc2n(-c3ccccc3)c(=O)c3c4c(sc3n12)CCCCC4
IC50 [11]: 2.54 µM (active)
IC50 (Major prion protein): 4.66 µM (active)
IC50 [12]: > 10 µM (not active)
IC50 (cells): 130 µM (inactive)

Cc1ccc(C)n1C(Cc1ccccc1)C(=O)O (configuration not stated)
AC50 (Cytochrome P450 2C19): 22.4 µM (inconclusive)
IC50 [12]: > 10 µM (not active)
IC50 [13]: > 100 µM (inactive)
IC50 [14]: 28 µM (active)
IC50 [15]: > 100 µM (inactive)
IC50 (Bcl-2-like protein 10): < 0.195 µM (inactive)
IC50 [16]: > 100 µM (not active)

Nc1c(C(=O)NCCCc2ccccc2)c2nc3ccccc3nc2n1Cc1cccs1
CC50 (Vero [17]): > 25 µM (active)
EC50 [18]: 2.2 µM (active)
EC50 (Protein RecA): 3.3 µM (active)
EC50 [6]: > 60 µM (not active)
EC50 [7]: 2.17 µM (active)
AC50 [19]: 29.3 µM (active)

COc1ccc(-c2csc(NC(=S)NC(=O)c3cccs3)n2)cc1Br
EC50 [20]: 1.41 µM (active)
